The source made the active and inactive calls. How the calls were made is not given here.

This assay relates to P. yoelii liver stage in HepG2-A16-CD81EGFP, imaging. Kind of assay: Plasmodium liver-stage growth inhibition, dose response, imaging, Malaria Box, P. yoelii, HepG2-A16-CD81EGFP (AID 602156).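 Further: infected cells exposed to compound for 48 hours before fixation.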
The IC50 is the concentration needed to halve the response being measured. Turning to `CCOC(=O)c1ccc(NCc2c(C)[nH]c3ccccc3c2=O)cc1`, the IC50 is 137 nM.
On to `CCOc1ccc2ncc(S(=O)(=O)c3ccc(OC)cc3)c(N3CCN(C)CC3)c2c1`, for which the IC50 was 10.7 nM.
Take `COc1ccc(NC(=O)COc2ccccc2C(C)C)c(OC)c1`: the IC50 is > 10000 nM (inactive).
In the case of `Fc1ccc2nc(Nc3nc(-c4ccccn4)cs3)sc2c1`, the IC50 is 43.8 nM.
Regarding `COc1cc(C(=O)Nc2ccc3nc4n(c(=O)c3c2)CCCCC4)cc(OC)c1OC`, the IC50 is > 10000 nM (inactive).
`c1ccc2c(NCCc3cnc[nH]3)c3ccccc3nc2c1`: the IC50 is 706 nM.
Then `CCCCOc1ccc(C2C3CCCC=C3C(C#N)=C(N)C2(C#N)C#N)cc1` (stereo unspecified), with > 10000 nM (inactive).
Take `CCOc1ccc(Nc2cc(=O)oc3ccccc23)cc1`: the concentration for half-maximal inhibition (IC50) is 502 nM.
Then `COc1ccc(C2CC(=O)C3=C(C2)NC(C)=C(C(=O)OC(C)C)C3c2ccccc2OC)cc1OC` (stereo unspecified), with > 10000 nM (inactive); and `O=C1C2=C(Nc3ccccc3SC2c2ccc(OCc3ccccc3)cc2)c2ccccc21` (stereo unspecified), with 58 nM; and `CCOc1ccc(Nc2nc(NCc3ccco3)c3ccccc3n2)cc1`, with 105 nM.
On to `Cc1cc(NC(c2cccc(Br)c2)c2ccc3cccnc3c2O)no1` (stereo unspecified), for which the IC50 was 147 nM.
Consider `CCCCCCN(C(=O)COc1ccccc1)C(CC)c1nc2ccccc2c(=O)n1-c1cccc(Cl)c1` (stereo unspecified), for which the IC50 was > 10000 nM (inactive).
`CCOC(=O)c1cnc2ccc(OC)cc2c1Cl`: the 50% inhibitory concentration (IC50) is 410 nM.
Consider `CC(Oc1ccc(Cl)cc1Cl)c1nc(-c2ccc(NC(=O)c3ccco3)cc2)no1` (stereo unspecified), for which the IC50 is 154 nM.
Consider `CCCCCCCn1c2c(c(=N)c3ccccc31)CCC2`, for which the IC50 is 76.5 nM.
With `Cc1cccc(NC(=S)NC2CC3CCCC(C2)N3CCc2ccccc2)c1` (stereo unspecified), the IC50 is 277 nM.
Turning to `c1ccc(-c2ccc(-c3ccccn3)nc2)nc1`, the IC50 is 39.4 nM.
For `O=C(c1cccc(Cl)c1)N1CCN(c2ccc([N+](=O)[O-])c(NC3CC3)c2)CC1`, the IC50 is 3200 nM.
Take `CCC(C)(C)c1ccc(OCCCC[n+]2cccc(C)c2C)c(C(C)(C)CC)c1`: the IC50 is 45.5 nM.
Turning to `Cc1cc(OC(C)C(=O)N2CCc3ccccc32)ccc1Cl` (stereo unspecified), the IC50 is 776 nM.
Then `O=c1c2ccccc2[nH]c2ccc(I)cc12`, with 105 nM; and `CCCCCCCCn1c(C)[n+](C)c2cc(Cl)c(Cl)cc21`, with 419 nM; and `COc1cccc(N2C(N)=NC(N)=NC2(C)C)c1`, with 29.5 nM.
Turning to `CC(=O)N(C1=C(N2CCOCC2)C(=O)c2ccccc2C1=O)c1ccc(I)cc1`, the IC50 is 602 nM.
Regarding `CCCCCCOc1ccc(NC(=O)c2cccs2)cc1`, the IC50 was 139 nM.
With `Nc1cccc(C(=O)Nc2ccc(Oc3cccc(Oc4ccc(NC(=O)c5cccc(N)c5)cc4)c3)cc2)c1`, the IC50 was 1760 nM.
`Cn1cnnc1SCC(=O)Nc1ccccc1C(F)(F)F`: the IC50 is > 10000 nM (inactive).
Take `CC(C)(C)c1ccc(Oc2ccc(N3C(=O)C4CC=CCC4C3=O)cc2)cc1` (stereo unspecified): the IC50 was > 10000 nM (inactive).
Turning to `CCCCCCN(C(=O)c1ccc(C(C)(C)C)cc1)C(CC)c1nc2ccccc2c(=O)n1-c1ccc(F)cc1` (stereo unspecified), the IC50 is > 6910 nM (inactive).
As to `CN(Cc1ccccc1)C(=O)CSc1nc(NCc2ccccc2)c2ccccc2n1`, the IC50 is 7.13 nM.
Take `CCOC(=O)c1c[nH]c2ccc(C(C)C)cc2c1=O`: the IC50 is 352 nM.
`CCOC(=O)c1c(NC(C)=O)sc2c1CCN(C(C)C)C2`: the IC50 is 3010 nM.
Then `CCNC(=O)C1CCN(c2cccc3c2C(=O)N(C2CCCCCCC2)C3=O)CC1`, with 269 nM.
Then `Cc1cccc(N2C(N)=NC(N)=NC2(C)C)c1`, with 4.25 nM; and `CC(=O)N(C1=C(N2CCOCC2)C(=O)c2ccccc2C1=O)c1cccc(Cl)c1`, with 744 nM.
As for `C[C@@H]1C[C@@H]([C@H](O)CC2CC(=O)NC(=O)C2)C(=O)[C@@H](C)C1`, the IC50 was 78.1 nM.
As to `CCCn1c(-c2cccc(Br)c2)nc2ccccc21`, the IC50 was > 8910 nM (inactive).
Turning to `CCCCCC[n+]1ccccc1/C=C/c1ccc(N(C)C)cc1`, the IC50 was 55.9 nM.
The value for `CCCCSc1oc(C)nc1[P+](c1ccccc1)(c1ccccc1)c1ccccc1` was 82.1 nM; that for `OC(CNC1CCCCC1)Cn1c2ccccc2c2ccccc21` (stereo unspecified) was 3920 nM.
Turning to `CC(C)CC(N)C(=O)N1CCn2c(nc(-c3ccccc3)c2Nc2ccc3c(c2)OCO3)C1` (stereo unspecified), the IC50 is 186 nM.
In the case of `CCOC(=O)c1cnc2ccc(OC)cc2c1NCc1cccs1`, the IC50 was 193 nM.
On to `NCC(=O)N1CCn2c(nc(-c3ccccc3)c2Nc2ccc3c(c2)OCO3)C1`, for which the concentration for half-maximal inhibition (IC50) was 221 nM.
On to `COc1ccc(CN2CCOc3ccc(C(C)(O)CN(C)C)cc3C2)cc1C` (stereo unspecified), for which the IC50 is 67.5 nM.
Take `COc1ccccc1Nc1nc(NCc2ccccc2)c2ccccc2n1`: the 50% inhibitory concentration (IC50) is 91.3 nM.
In the case of `Cc1ccc(S(=O)(=O)Nc2nc3n(n2)C(c2ccccc2)C=C(c2ccccc2)N3)cc1` (stereo unspecified), the IC50 was > 10000 nM (inactive).
Consider `O=C(O)c1c[nH]c2cc(N3CCCCCC3)c(F)cc2c1=O`, for which the IC50 is > 10000 nM (inactive).
For the compound `Nc1ccc(N2CCCCCC2)cc1`, the IC50 was 1950 nM.
The value for `O=C1C2=C(Nc3ccccc3SC2c2cccs2)c2ccccc21` (stereo unspecified) was 90.4 nM; that for `Cc1ccc(Nc2nc(NCc3ccccc3)c3ccccc3n2)cc1` was 278 nM; that for `CC(=O)Nc1nc(C)c(-c2csc(Nc3ccc(C)cc3)n2)s1` was 1890 nM.
With `CCC(C)Nc1nc(NC(C)CC)nc(N2CCCCCC2)n1` (stereo unspecified), the IC50 was 300 nM.
Regarding `Cc1nc2ccc(NC(=O)C3CC3)cc2c(=O)n1Cc1ccc(Cl)cc1`, the IC50 was > 10000 nM (inactive).
Take `COC(=O)c1cc(NC(=S)NC(=O)c2c(OC)cccc2OC)cc(C(=O)OC)c1`: the IC50 was > 10000 nM (inactive).
For the compound `CCOc1ccc2[nH]c(=O)c(CN(CCN(CC)CC)C(=S)NCCCN(CC)CC)cc2c1`, the 50% inhibitory concentration (IC50) is 2170 nM.

These data come from PubChem BioAssay AID602156 (GNF / Scripps Winzeler lab, 2011).
